Assay results reported in EP4603105A1, “PHARMACEUTICAL COMPOSITION CONTAINING CYCLIC COMPOUND HAVING SELECTIVE KRAS INHIBITORY EFFECT AGAINST HRAS AND NRAS” (CHUGAI SEIYAKU KABUSHIKI KAISHA, priority 2022, dated 2024).
Where a SMILES comes first, the peptide text is derived from it. Bridges are numbered along the chain shown (N, C = ends). [ ]: non-standard residue; d: D form. The star is where a group is joined. hPhe(3-Cl-4-CF3) = N[C@@H](CCc1ccc(C(F)(F)F)c(Cl)c1)C(=O)O; NPrPhe(4-CF3) = CCCN[C@@H](Cc1ccc(C(F)(F)F)cc1)C(=O)O; NMeGly(cPent) = CN[C@H](C(=O)O)C1CCCC1; Pro(4,4-F2) = O=C(O)[C@@H]1CC(F)(F)CN1; Pro(4,4-Me2) = CC1(C)CN[C@H](C(=O)O)C1; Pro(4S-Me) = C[C@@H]1CN[C@H](C(=O)O)C1; Hyp = O=C(O)[C@@H]1C[C@@H](O)CN1; NMeD = CN[C@@H](CC(=O)O)C(=O)O; NMeL = CN[C@@H](CC(C)C)C(=O)O; Morpholide = C1CN(*)CCO1; Ac5c = NC1(C(=O)O)CCCC1; Aze = O=C(O)[C@@H]1CCN1; Ac4c = NC1(C(=O)O)CCC1; Sar = CNCC(=O)O

What was measured:
[1] = molecular target: HRAS wild-type protein (Homo sapiens, UniProt P01112); assay: Binding to HRAS by surface plasmon resonance (SPR), KD and KD ratio to KRAS
Chain of HRAS wild-type protein (P01112 whole entry): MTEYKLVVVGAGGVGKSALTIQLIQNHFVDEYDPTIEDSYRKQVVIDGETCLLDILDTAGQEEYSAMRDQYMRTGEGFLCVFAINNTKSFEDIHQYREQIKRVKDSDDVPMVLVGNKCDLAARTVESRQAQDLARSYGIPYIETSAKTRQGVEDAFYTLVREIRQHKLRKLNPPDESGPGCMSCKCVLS
Procedure, shortened: (§1)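 Running buffer contained 10 µM GDP and 10 mM MgCl2 to keep RAS in the GDP state, with 4% DMSO at pH 7.4. Compounds were flowed at 100 µL/min in 75 s steps of rising concentration over captured biotin-Avi RAS at 30°C. Sensorgrams were fitted 1:1 for KD.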

[2] = molecular target: GDP-bound NRAS wild-type protein (Homo sapiens, UniProt P01111); assay: Binding to NRAS by surface plasmon resonance (SPR), KD and KD ratio to KRAS
Chain of GDP-bound NRAS wild-type protein (P01111 whole entry): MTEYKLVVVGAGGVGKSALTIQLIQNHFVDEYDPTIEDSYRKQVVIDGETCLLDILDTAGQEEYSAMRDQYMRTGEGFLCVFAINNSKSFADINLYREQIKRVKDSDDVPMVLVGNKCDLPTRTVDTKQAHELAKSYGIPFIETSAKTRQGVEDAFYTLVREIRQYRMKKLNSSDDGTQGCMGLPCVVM
Procedure, shortened: as §1

[3] = tested on: human lung cancer strain NCI-H441; type: cell-based
Procedure, shortened: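 Step one: dispense the test compound in serial DMSO dilutions. Step three: add the reagent and measure […].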

[4] = molecular target: GDP-bound KRAS wild-type protein (Homo sapiens, UniProt P01116); assay: Binding to KRAS by surface plasmon resonance (SPR), dissociation constant KD; conditions: 1:1 binding model
Chain of GDP-bound KRAS wild-type protein (P01116 1-188 isoform P01116-2): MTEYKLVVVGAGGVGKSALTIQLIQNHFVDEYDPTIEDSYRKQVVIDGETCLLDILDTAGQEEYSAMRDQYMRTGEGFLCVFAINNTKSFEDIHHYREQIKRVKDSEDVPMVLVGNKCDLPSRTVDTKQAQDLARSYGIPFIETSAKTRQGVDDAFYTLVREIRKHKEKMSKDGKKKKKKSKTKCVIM
Procedure, shortened: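 Each cycle, GDP-bound biotin-Avi RAS was captured (~100–300 RU), compound concentrations were injected low to high for 75 s each at 100 µL/min, then the chip was regenerated. Buffer: HBS pH 7.4, 10 mM MgCl2, 10 µM GDP, 1 mM DTT, 4% DMSO; 30°C. KD from a 1:1 binding model.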

[5] = ratio of KD for HRAS wild-type protein to KD for KRAS
[6] = ratio of KD for GDP-bound NRAS wild-type protein to KD for KRAS
[7] = ratio of the KD value with respect to HRAS wild-type protein to the KD value with respect to KRAS
[8] = ratio of the KD value with respect to GDP-bound NRAS wild-type protein to the KD value with respect to KRAS

SMILES	HRAS /KRAS [1, 5]	NRAS /KRAS [2, 6]	IC50 [3] [nM]	Kd [4] [nM]	HRAS /KRAS [1, 7]	NRAS /KRAS [2, 8]	Kd ([4]; Single Cycle Kinetics) [nM]
CCCN1C(=O)CN(C)C(=O)[C@@H]2CCN2C(=O)[C@H]([C@@H](C)CC)NC(=O)[C@H](CC(C)C)N(C)C(=O)C[C@@H](C(=O)N2CCOCC2)NC(=O)[C@H](C2CCCC2)N(C)C(=O)C2(CCCC2)NC(=O)[C@@H]2C[C@@H](OCC)CN2C(=O)[C@H](CCc2ccc(C(F)(F)F)c(Cl)c2)NC(=O)CN(C)C(=O)[C@@H]1Cc1ccc(C(F)(F)F)cc1 [PP0341] ([NMeL]I[Aze][Sar][NPrPhe(4-CF3)][Sar][hPhe(3-Cl-4-CF3)][Hyp](Et)[Ac5c][NMeGly(cPent)]D-Morpholide; lactam N-11)	B (a compound having 3 or more and less than 10 is denoted as B)	B (a compound having 3 or more and less than 10 is denoted as B)	135	1.4			
CCCN1C(=O)CN(C)C(=O)[C@@H]2CCN2C(=O)[C@H]([C@@H](C)CC)NC(=O)[C@H](CC(C)C)N(C)C(=O)C[C@@H](C(=O)N(C)C)NC(=O)[C@H](C2CCCC2)N(C)C(=O)C2(CCC2)NC(=O)[C@@H]2CC(F)(F)CN2C(=O)[C@H](CCc2ccc(C(F)(F)F)c(Cl)c2)NC(=O)CN(C)C(=O)[C@@H]1Cc1ccc(C(F)(F)F)cc1 [PP0376] ([NMeL]I[Aze][Sar][NPrPhe(4-CF3)][Sar][hPhe(3-Cl-4-CF3)][Pro(4,4-F2)][Ac4c][NMeGly(cPent)]D-NMe2; lactam N-11)	B (a compound having 3 or more and less than 10 is denoted as B)	B (a compound having 3 or more and less than 10 is denoted as B)	114	2			
CCCN1C(=O)CN(C)C(=O)[C@@H]2CCN2C(=O)[C@H]([C@@H](C)CC)NC(=O)[C@H](CC(C)C)N(C)C(=O)C[C@@H](C(=O)N(C)C)NC(=O)[C@H](C2CCCC2)N(C)C(=O)C2(CCC2)NC(=O)[C@@H]2C[C@@H](OCC)CN2C(=O)[C@H](CCc2ccc(C(F)(F)F)c(Cl)c2)NC(=O)CN(C)C(=O)[C@@H]1Cc1ccc(C(F)(F)F)cc1 [PP0378] ([NMeL]I[Aze][Sar][NPrPhe(4-CF3)][Sar][hPhe(3-Cl-4-CF3)][Hyp](Et)[Ac4c][NMeGly(cPent)]D-NMe2; lactam N-11)	B (a compound having 3 or more and less than 10 is denoted as B)	B (a compound having 3 or more and less than 10 is denoted as B)	110	0.85			
CCCN1C(=O)CN(C)C(=O)[C@@H]2CCN2C(=O)[C@H]([C@@H](C)CC)NC(=O)[C@H](CC(C)C)N(C)C(=O)C[C@@H](C(=O)N2CCOCC2)N(C)C(=O)[C@H](C2CCCC2)N(C)C(=O)C2(CCC2)NC(=O)[C@@H]2CCCN2C(=O)[C@H](CCc2ccc(C(F)(F)F)c(Cl)c2)NC(=O)CN(C)C(=O)[C@@H]1Cc1ccc(C(F)(F)F)cc1 [PP0402] ([NMeL]I[Aze][Sar][NPrPhe(4-CF3)][Sar][hPhe(3-Cl-4-CF3)]P[Ac4c][NMeGly(cPent)][NMeD]-Morpholide; lactam N-11)			58.1		C (A compound having a KD ratio of 0.1 or more and less than 3 is denoted as C)	B (a compound having 3 or more and less than 10 is denoted as B)	1.2
CCCN1C(=O)CN(C)C(=O)[C@@H]2CCN2C(=O)[C@H]([C@@H](C)CC)NC(=O)[C@H](CC(C)C)N(C)C(=O)C[C@@H](C(=O)N2CCOCC2)N(C)C(=O)[C@H](C2CCCC2)N(C)C(=O)C2(CCC2)NC(=O)[C@@H]2CC(F)(F)CN2C(=O)[C@H](CCc2ccc(C(F)(F)F)c(Cl)c2)NC(=O)CN(C)C(=O)[C@@H]1Cc1ccc(C(F)(F)F)cc1 [PP0404] ([NMeL]I[Aze][Sar][NPrPhe(4-CF3)][Sar][hPhe(3-Cl-4-CF3)][Pro(4,4-F2)][Ac4c][NMeGly(cPent)][NMeD]-Morpholide; lactam N-11)			21.7		C (A compound having a KD ratio of 0.1 or more and less than 3 is denoted as C)	B (a compound having 3 or more and less than 10 is denoted as B)	0.37
CCCN1C(=O)CN(C)C(=O)[C@@H]2CCN2C(=O)[C@H]([C@@H](C)CC)NC(=O)[C@H](CC(C)C)N(C)C(=O)C[C@@H](C(=O)N(C)C)N(C)C(=O)[C@H](C2CCCC2)N(C)C(=O)C2(CCCC2)NC(=O)[C@@H]2CCCN2C(=O)[C@H](CCc2ccc(C(F)(F)F)c(Cl)c2)NC(=O)CN(C)C(=O)[C@@H]1Cc1ccc(C(F)(F)F)cc1 [PP0429] ([NMeL]I[Aze][Sar][NPrPhe(4-CF3)][Sar][hPhe(3-Cl-4-CF3)]P[Ac5c][NMeGly(cPent)][NMeD]-NMe2; lactam N-11)			12.4		C (A compound having a KD ratio of 0.1 or more and less than 3 is denoted as C)	B (a compound having 3 or more and less than 10 is denoted as B)	0.39
CCCN1C(=O)CN(C)C(=O)[C@@H]2CCN2C(=O)[C@H]([C@@H](C)CC)NC(=O)[C@H](CC(C)C)N(C)C(=O)C[C@@H](C(=O)N(C)C)N(C)C(=O)[C@H](C2CCCC2)N(C)C(=O)C2(CCCC2)NC(=O)[C@@H]2CC(F)(F)CN2C(=O)[C@H](CCc2ccc(C(F)(F)F)c(Cl)c2)NC(=O)CN(C)C(=O)[C@@H]1Cc1ccc(C(F)(F)F)cc1 [PP0431] ([NMeL]I[Aze][Sar][NPrPhe(4-CF3)][Sar][hPhe(3-Cl-4-CF3)][Pro(4,4-F2)][Ac5c][NMeGly(cPent)][NMeD]-NMe2; lactam N-11)			9.9		C (A compound having a KD ratio of 0.1 or more and less than 3 is denoted as C)	B (a compound having 3 or more and less than 10 is denoted as B)	0.35
CCCN1C(=O)CN(C)C(=O)[C@@H]2CCN2C(=O)[C@H]([C@@H](C)CC)NC(=O)[C@H](CC(C)C)N(C)C(=O)C[C@@H](C(=O)N(C)C)N(C)C(=O)[C@H](C2CCCC2)N(C)C(=O)C2(CCC2)NC(=O)[C@@H]2CC(F)(F)CN2C(=O)[C@H](CCc2ccc(C(F)(F)F)c(Cl)c2)NC(=O)CN(C)C(=O)[C@@H]1Cc1ccc(C(F)(F)F)cc1 [PP0432] ([NMeL]I[Aze][Sar][NPrPhe(4-CF3)][Sar][hPhe(3-Cl-4-CF3)][Pro(4,4-F2)][Ac4c][NMeGly(cPent)][NMeD]-NMe2; lactam N-11)			10.7		B (a compound having 3 or more and less than 10 is denoted as B)	B (a compound having 3 or more and less than 10 is denoted as B)	0.17
CCCN1C(=O)CN(C)C(=O)[C@@H]2CCN2C(=O)[C@H]([C@@H](C)CC)NC(=O)[C@H](CC(C)C)N(C)C(=O)C[C@@H](C(=O)N2CCOCC2)N(C)C(=O)[C@H](C2CCCC2)N(C)C(=O)C2(CCCC2)NC(=O)[C@@H]2CC(C)(C)CN2C(=O)[C@H](CCc2ccc(C(F)(F)F)c(Cl)c2)NC(=O)CN(C)C(=O)[C@@H]1Cc1ccc(C(F)(F)F)cc1 [PP0452] ([NMeL]I[Aze][Sar][NPrPhe(4-CF3)][Sar][hPhe(3-Cl-4-CF3)][Pro(4,4-Me2)][Ac5c][NMeGly(cPent)][NMeD]-Morpholide; lactam N-11)			34.1		B (a compound having 3 or more and less than 10 is denoted as B)	B (a compound having 3 or more and less than 10 is denoted as B)	0.73
CCCN1C(=O)CN(C)C(=O)[C@@H]2CCN2C(=O)[C@H]([C@@H](C)CC)NC(=O)[C@H](CC(C)C)N(C)C(=O)C[C@@H](C(=O)N2CCOCC2)N(C)C(=O)[C@H](C2CCCC2)N(C)C(=O)C2(CCCC2)NC(=O)[C@@H]2C[C@H](C)CN2C(=O)[C@H](CCc2ccc(C(F)(F)F)c(Cl)c2)NC(=O)CN(C)C(=O)[C@@H]1Cc1ccc(C(F)(F)F)cc1 [PP0453] ([NMeL]I[Aze][Sar][NPrPhe(4-CF3)][Sar][hPhe(3-Cl-4-CF3)][Pro(4S-Me)][Ac5c][NMeGly(cPent)][NMeD]-Morpholide; lactam N-11)			20.3		C (A compound having a KD ratio of 0.1 or more and less than 3 is denoted as C)	B (a compound having 3 or more and less than 10 is denoted as B)	1.2
CC[C@H](C)[C@@H]1NC(=O)[C@H](CC(C)C)N(C)C(=O)C[C@@H](C(=O)N2CCOCC2)N(C)C(=O)[C@H](C2CCCC2)N(C)C(=O)C2(CCCC2)NC(=O)[C@@H]2CCCN2C(=O)[C@H](CCc2ccc(C(F)(F)F)c(Cl)c2)NC(=O)CN(C)C(=O)[C@H](Cc2ccc(C)cc2)N2CC=CC[C@@H](C2=O)N(C)C(=O)CN(C)C1=O [PP0460]			5.4		C (A compound having a KD ratio of 0.1 or more and less than 3 is denoted as C)	C (A compound having a KD ratio of 0.1 or more and less than 3 is denoted as C)	0.14
